Target: CNS nicotinic receptors
Assay: Binding to relevant receptor sites
Conditions: free base used to prepare the salt forms, stated in words only
Experimental: Receptor binding constants provide a measure of the ability of the compound to bind to half of the relevant receptor sites of certain brain cells of the patient. See, Cheng, et al., Biochem. Pharmacol. 22:3099 (1973). The (2S)-(4E)-N-methyl-5-[3-(5-isopropoxypyridin)yl]-4-penten-2-amine compound used to prepare the salt forms has extremely high affinity for the relevant receptors, with a binding affinity in the low nM range.
Binding of the compounds to relevant receptor sites was determined in accordance with the techniques described in U.S. Pat. No. 6,953,855 to Mazurov et al. Inhibition constants (Ki values), reported in nM, were calculated from the IC50 values using the method of Cheng et al., Biochem, Pharmacol. 22:3099 (1973).

binding affinity: low nM range
SMILES: CN[C@@H](C)C/C=C/c1cncc(OC(C)C)c1 [(2S)-(4E)-N-methyl-5-[3-(5-isopropoxypyridin)yl]-4-penten-2-amine]

Reference: US8461344B2, “Polymorph forms of (2S)-(4E)-N-methyl-5-[3-(5-isopropdxypyridin)yl]-4-penten-2-amine” (Targacept, Inc., priority 2006, dated 2013)
